# Measured values from US12077503B2, “Substituted cyclic amides and their use as herbicides” (FMC CORPORATION, priority 2015, dated 2024).
# Key:
# Assay type in all cases: in vivo
# [1] = test system: sedge, umbrella (small-flower umbrella sedge, Cyperus difformis); experiment: Test B flooded paddy test; conditions: Flood, 250 g ai/ha; 0 to 100 scale where 0 is no effect and 100 is complete control; 13 to 15 d
# Summary of the method: (§1)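 Evaluation by eye, against controls, occurred 13–15 d post-treatment in a greenhouse, using a 0 (no effect) to 100 (complete control) scale. Application was into the paddy water, 3 cm deep over the soil, on 2-leaf plants.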
# [2] = test system: barnyardgrass (Echinochloa crus-galli); experiment: Test B flooded paddy test; conditions: Flood, 250 g ai/ha; 0 to 100 scale where 0 is no effect and 100 is complete control; 13 to 15 d
# Summary of the method: as §1
# [3] = test system: ducksalad (Heteranthera limosa); experiment: Test B flooded paddy test; conditions: Flood, 250 g ai/ha; 0 to 100 scale where 0 is no effect and 100 is complete control; 13 to 15 d
# Summary of the method: as §1
# rice (Oryra sativa) = experiment: Test B flooded paddy test; conditions: Flood, 250 g ai/ha; 0 to 100 scale where 0 is no effect and 100 is complete control; 13 to 15 d
# Summary of the method: as §1
# [4] = test system: Galium (catchweed bedstraw, Galium aparine); experiment: Test A postemergence; conditions: for Galium plant response rating: 125 g ai/ha, postemergence, visual injury rating on 0 to 100 scale (0 no effect, 100 complete control), approx. 10 d; for Plant response rating, Galium: Postemergence, 500 g ai/ha, 0 to 100 scale where 0 is no effect and 100 is complete control
# Summary of the method: (§2)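 Seeds sprayed preemergence with a directed soil spray, or plants at 2 to 10 cm height and one- to two-leaf stage sprayed postemergence, with test chemicals in a non-phytotoxic solvent mixture containing surfactant, in loam soil–sand blend. Injury rated visually against untreated controls after about 10 d in greenhouse, 0 (no effect) to 100 (complete control).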
# [5] = test system: giant foxtail (Setaria faberii); experiment: Test A postemergence; conditions: for Foxtail, Giant plant response rating: 125 g ai/ha, postemergence, visual injury rating on 0 to 100 scale (0 no effect, 100 complete control), approx. 10 d; for Plant response rating, Foxtail, Giant: Postemergence, 500 g ai/ha, 0 to 100 scale where 0 is no effect and 100 is complete control
# Summary of the method: as §2
# corn (Zea mays) = experiment: Test A postemergence; conditions: for Corn plant response rating: 125 g ai/ha, visual injury rating on 0 to 100 scale (0 no effect, 100 complete control), approx. 10 d; for Plant response rating, Corn: 500 g ai/ha
# Summary of the method: as §2
# [6] = test system: ryegrass, Italian (Italian ryegrass, Lolium multiflorum); experiment: Test A postemergence; conditions: for Ryegrass, Italian plant response rating: 125 g ai/ha, postemergence, visual injury rating on 0 to 100 scale (0 no effect, 100 complete control), approx. 10 d; for Plant response rating, Ryegrass, Italian: Postemergence, 500 g ai/ha, 0 to 100 scale where 0 is no effect and 100 is complete control
# Summary of the method: as §2
# Kochia (Kochia scoparia) [7] = experiment: Test A postemergence; conditions: for Kochia plant response rating: 125 g ai/ha, postemergence, visual injury rating on 0 to 100 scale (0 no effect, 100 complete control), approx. 10 d; for Plant response rating, Kochia: Postemergence, 500 g ai/ha, 0 to 100 scale where 0 is no effect and 100 is complete control
# Summary of the method: as §2
# [8] = test system: barnyardgrass (Echinochloa crus-galli); experiment: Test A postemergence; conditions: for Barnyardgrass plant response rating: 125 g ai/ha, visual injury rating on 0 to 100 scale (0 no effect, 100 complete control), approx. 10 d; for Plant response rating, Barnyardgrass: 500 g ai/ha
# Summary of the method: as §2
# [9] = test system: ragweed (common ragweed, Ambrosia elatior); experiment: Test A postemergence; conditions: for Ragweed plant response rating: 125 g ai/ha, postemergence, visual injury rating on 0 to 100 scale (0 no effect, 100 complete control), approx. 10 d; for Plant response rating, Ragweed: Postemergence, 500 g ai/ha, 0 to 100 scale where 0 is no effect and 100 is complete control
# Summary of the method: as §2
# [10] = test system: blackgrass (Alopecurus myosuroides); experiment: Test A postemergence; conditions: for Blackgrass plant response rating: 125 g ai/ha, visual injury rating on 0 to 100 scale (0 no effect, 100 complete control), approx. 10 d; for Plant response rating, Blackgrass: 500 g ai/ha
# Summary of the method: as §2
# [11] = test system: pigweed (Amaranthus retroflexus); experiment: Test A postemergence; conditions: for Pigweed plant response rating: 125 g ai/ha, postemergence, visual injury rating on 0 to 100 scale (0 no effect, 100 complete control), approx. 10 d; for Plant response rating, Pigweed: Postemergence, 500 g ai/ha, 0 to 100 scale where 0 is no effect and 100 is complete control
# Summary of the method: as §2
# [12] = test system: wheat (Triticum aestivum); experiment: Test A postemergence; conditions: for Wheat plant response rating: 125 g ai/ha, postemergence, visual injury rating on 0 to 100 scale (0 no effect, 100 complete control), approx. 10 d; for Plant response rating, Wheat: Postemergence, 500 g ai/ha, 0 to 100 scale where 0 is no effect and 100 is complete control
# Summary of the method: as §2
# [13] = test system: giant foxtail (Setaria faberii); experiment: Test A preemergence; conditions: for Plant response rating, Foxtail, Giant: 125 g ai/ha; for Foxtail, Giant plant response rating (0 to 100 scale, 0 is no effect, 100 is complete control): 500 g ai/ha, visual injury approx. 10 d
# Summary of the method: as §2
# [14] = test system: ryegrass, Italian (Italian ryegrass, Lolium multiflorum); experiment: Test A preemergence; conditions: Preemergence; for Plant response rating, Ryegrass, Italian: 125 g ai/ha, visual injury after approximately 10 d, 0 to 100 scale where 0 is no effect and 100 is complete control; for Ryegrass, Italian plant response rating (0 to 100 scale, 0 is no effect, 100 is complete control): 500 g ai/ha, visual injury approx. 10 d
# Summary of the method: as §2
# Kochia (Kochia scoparia) [15] = experiment: Test A preemergence; conditions: for Plant response rating, Kochia: 125 g ai/ha; for Kochia plant response rating (0 to 100 scale, 0 is no effect, 100 is complete control): 500 g ai/ha, visual injury approx. 10 d
# Summary of the method: as §2
# [16] = test system: barnyardgrass (Echinochloa crus-galli); experiment: Test A preemergence; conditions: for Plant response rating, Barnyardgrass: 125 g ai/ha; for Barnyardgrass plant response rating (0 to 100 scale, 0 is no effect, 100 is complete control): 500 g ai/ha, visual injury approx. 10 d
# Summary of the method: as §2
# [17] = test system: ragweed (common ragweed, Ambrosia elatior); experiment: Test A preemergence; conditions: Preemergence; for Plant response rating, Ragweed: 125 g ai/ha, visual injury after approximately 10 d, 0 to 100 scale where 0 is no effect and 100 is complete control; for Ragweed plant response rating (0 to 100 scale, 0 is no effect, 100 is complete control): 500 g ai/ha, visual injury approx. 10 d
# Summary of the method: as §2
# [18] = test system: pigweed (Amaranthus retroflexus); experiment: Test A preemergence; conditions: Preemergence; for Plant response rating, Pigweed: 125 g ai/ha, visual injury after approximately 10 d, 0 to 100 scale where 0 is no effect and 100 is complete control; for Pigweed plant response rating (0 to 100 scale, 0 is no effect, 100 is complete control): 500 g ai/ha, visual injury approx. 10 d
# [19] = Postemergence, 0 to 100 scale where 0 is no effect and 100 is complete control
# [20] = Preemergence, visual injury after approximately 10 d, 0 to 100 scale where 0 is no effect and 100 is complete control
# [21] = postemergence, 0 to 100 scale, 0 no effect, 100 complete control
# [22] = preemergence, 0 to 100 scale (0 no effect, 100 complete control)
SMILES,"Plant response rating, Sedge, Umbrella [1]","Plant response rating, Barnyardgrass [2]","Plant response rating, Ducksalad [3]","Plant response rating, Rice (rice (Oryra sativa))",Galium plant response rating [4],"Plant response rating, Galium [4]","Foxtail, Giant plant response rating [5]","Plant response rating, Foxtail, Giant [5]",Corn plant response rating (corn (Zea mays); postemergence),"Ryegrass, Italian plant response rating [6]","Plant response rating, Ryegrass, Italian [6]",Kochia plant response rating (Kochia (Kochia scoparia) [7]),"Plant response rating, Kochia (Kochia (Kochia scoparia) [7])",Barnyardgrass plant response rating ([8]; postemergence),Ragweed plant response rating [9],"Plant response rating, Ragweed [9]",Blackgrass plant response rating ([10]; postemergence),Pigweed plant response rating [11],"Plant response rating, Pigweed [11]",Wheat plant response rating [12],also measured
O=C1NCC(c2cc(F)cc(C(F)(F)F)c2)C1C(=O)Nc1ccc(F)cc1F (stereo not drawn) [Compound 490],0,50,85,30,20,40,80,80,80,0,30,0,20,80,0,20,20,0,20,30,"Plant response rating, Corn (corn (Zea mays); [19]): 80; Plant response rating, Barnyardgrass [8, 19]: 80; Plant response rating, Blackgrass [10, 19]: 40; Plant response rating, Wheat [12]: 50; Plant response rating, Foxtail, Giant [13, 20]: 90; Foxtail, Giant plant response rating (0 to 100 scale, 0 is no effect, 100 is complete control) ([13]; Preemergence): 90; Plant response rating, Ryegrass, Italian [14]: 20; Ryegrass, Italian plant response rating (0 to 100 scale, 0 is no effect, 100 is complete control) [14]: 50; Plant response rating, Kochia (Kochia (Kochia scoparia) [15]; [20]): 0; Kochia plant response rating (0 to 100 scale, 0 is no effect, 100 is complete control) (Kochia (Kochia scoparia) [15]; Preemergence): 20; Plant response rating, Barnyardgrass [16, 20]: 80; Barnyardgrass plant response rating (0 to 100 scale, 0 is no effect, 100 is complete control) ([16]; Preemergence): 90; Plant response rating, Ragweed [17]: 0; Ragweed plant response rating (0 to 100 scale, 0 is no effect, 100 is complete control) [17]: 0; Plant response rating, Pigweed [18]: 0; Pigweed plant response rating (0 to 100 scale, 0 is no effect, 100 is complete control) [18]: 0"
C=C(Cl)CN1CC(c2cccc(C(F)(F)F)c2)C(C(=O)Nc2cccc(F)c2F)C1=O (stereo not drawn) [Compound 480],0,0,0,0,0,0,20,50,0,0,0,0,0,0,0,0,0,0,0,0,"Plant response rating, Corn (corn (Zea mays); [21]): 0; Plant response rating, Barnyardgrass [8, 21]: 30; Plant response rating, Blackgrass [10, 21]: 0; Plant response rating, Wheat [12]: 30; Plant response rating, Foxtail, Giant [13, 22]: 70; Foxtail, Giant plant response rating (0 to 100 scale, 0 is no effect, 100 is complete control) ([13]; Preemergence): 90; Plant response rating, Ryegrass, Italian [14]: 0; Ryegrass, Italian plant response rating (0 to 100 scale, 0 is no effect, 100 is complete control) [14]: 0; Plant response rating, Kochia (Kochia (Kochia scoparia) [15]; [22]): 0; Kochia plant response rating (0 to 100 scale, 0 is no effect, 100 is complete control) (Kochia (Kochia scoparia) [15]; Preemergence): 0; Plant response rating, Barnyardgrass [16, 22]: 0; Barnyardgrass plant response rating (0 to 100 scale, 0 is no effect, 100 is complete control) ([16]; Preemergence): 0; Plant response rating, Ragweed [17]: 0; Ragweed plant response rating (0 to 100 scale, 0 is no effect, 100 is complete control) [17]: 0; Plant response rating, Pigweed [18]: 0; Pigweed plant response rating (0 to 100 scale, 0 is no effect, 100 is complete control) [18]: 0"
